This is an account of results in article PMC7019173, “Stapled peptide targeting the CDK4/Cyclin D interface combined with Abemaciclib inhibits KRAS mutant lung cancer growth” (Theranostics, 2020).

A short description of data set [1]: Circular dichroism, determination of alpha helical content. It counts as physicochemical. The protocol:
CD experiments were carried out using a Jasco J815 spectropolarimeter. Spectra were recorded with 100 μM of peptides dissolved in phosphate buffer 50 mM, pH 7, using a 1 mm pathlength CD cuvette at 20 °C, over a wavelength range of 190-260 nm. Continuous scanning mode was used, with a response of 1.0 s with 0.1 nm steps and a bandwidth of 2 nm. The signal to noise ratio was improved by acquiring each spectrum over an average of two scans. Baseline was corrected by subtracting the background from the sample spectrum.
Alpha helical content was determined using the following equation: % Helix = ([θ])obs * 100)/(-39500 * (1-2.57/n), where ([θ])obs is the mean residue ellipticity at 222 nm and n the number of peptide bonds.
(In general: Circular dichroism is the unequal absorption of left and right circularly polarised light.)

Data set [2] deals with C4D peptide derived from the alpha 5 helix of cyclin D1 (Homo sapiens, UniProt P24385). Nature of the data set: Fluorescence titration of TP2-Rho-labelled C4D peptide with CDK4 C helix-derived peptides. Particulars: 200 nM TP2-Rho labelled C4D peptide, PBS, 30 °C, average of n = 3 to 5 ± SD. It counts as binding. As for the experimental part:
(§1) TP2-Rho-labelled peptides: peptides were labelled on a unique cysteine residue with a five-fold molar excess of TP2-Rho-maleimide overnight, and then purified from free dye on NAP-5 columns (GE Healthcare), as described previously.
(§2) Fluorescence titration assays were performed in 96-well plates in a thermostated chamber (Clariostar spectrofluorimeter, BMG) at 30 °C in 200 μL phosphate buffer saline using 200 nM fluorescently-labelled peptides or proteins. The fluorescence emission intensity of TP2-Rho-labelled peptides was recorded at 614 nm following excitation at 510 nm. The fluorescence emission intensity of mant-ATP was measured at […]. Data analysis was performed using the GraFit Software (Erathicus Ltd) and curve fitting was performed using a quadratic equation, as described previously. Experiments were performed in triplicate, and Kd values represent the average calculated for n = 3 to 5 experiments, together with standard deviation.

A short description of a further data set: circular dichroism. The following applies: 50 mM phosphate buffer; pH 7; 20 °C; 100 uM.
In a further data set the target is T1, GST-cyclin D1 (Homo sapiens, UniProt P24385).
T1 construct: made in house; host or cells: E. coli
Nature of the data set: Fluorescence titration of TP2-Rho-labelled peptides with GST-cyclin D1. It counts as binding. Particulars: 200 nM TP2-Rho labelled peptide titrated with GST-cyclin D1, PBS, 30 °C, average of n = 3 to 5 ± SD. The protocol:
as §1
Recombinant GST-CDK4 and GST-cyclin D1 were expressed in E. coli by IPTG induction and purified by FPLC chromatography as described previously.
as §2

The nature of data set [3]: Solubility of stapled peptides. It counts as physicochemical.

Where a SMILES comes first, the peptide text is derived from it. Bridges are numbered along the chain shown (N, C = ends). [ ]: non-standard residue; d: D form. S5 = C=CCCC[C@](C)(N)C(=O)O

Sequence of C4D peptide derived from the alpha 5 helix of cyclin D1 (P24385 whole entry): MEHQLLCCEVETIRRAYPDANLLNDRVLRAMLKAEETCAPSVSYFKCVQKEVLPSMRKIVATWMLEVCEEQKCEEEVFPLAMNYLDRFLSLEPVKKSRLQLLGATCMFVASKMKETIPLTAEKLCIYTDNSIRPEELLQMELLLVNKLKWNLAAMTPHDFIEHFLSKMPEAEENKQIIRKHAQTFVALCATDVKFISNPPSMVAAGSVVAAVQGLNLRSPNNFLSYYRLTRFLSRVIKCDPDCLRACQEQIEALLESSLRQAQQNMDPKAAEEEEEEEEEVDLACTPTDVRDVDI
T1 sequence (P24385 whole entry): as above

A word on the Kd: it is the equilibrium constant for the complex coming apart. Lower therefore signals tighter binding. In the case of `CC[C@H](C)[C@H](NC(=O)[C@@H]1CCCN1C(=O)[C@@H](N)CS)C(=O)N[C@@H](CO)C(=O)N[C@H](C(=O)N[C@H](C(=O)N[C@@H](CCCNC(=N)N)C(=O)N[C@@H](CCC(=O)O)C(=O)N[C@H](C(=O)N[C@@H](C)C(=O)N[C@@H](CC(C)C)C(=O)N[C@@H](CC(C)C)C(=O)N[C@@H](CCCNC(=N)N)C(=O)N[C@@H](CCCNC(=N)N)C(=O)N[C@@H](CC(C)C)C(=O)N[C@@H](CCC(=O)O)C(=O)N[C@@H](C)C(=O)N[C@@H](Cc1ccccc1)C(=O)N[C@@H](CCC(=O)O)C(N)=O)C(C)C)C(C)C)[C@@H](C)O` [CDK4 C peptide] (H-CPISTVREVALLRRLEAFE-NH2), in data set [1] (CD, 100 μM peptide in phosphate buffer 50 mM, pH 7, 20 °C, from mean residue ellipticity at 222 nm), the “% helix (alpha helical content)” value was found to be 7%. Moreover, the “helicity upon addition of 25% TFE” value in data set [1] (CD, phosphate buffer with 25% TFE) was determined as 46%. Besides, the “conformation in solution (CD)” value in data set [1] (phosphate buffer) is “disordered”. Further, the results for the Kd (in data set [2]; at GST-cyclin D1) were 83 ± 45 nM and 43 ± 24 nM, respectively. In the data set “circular dichroism”, this compound yielded a helicity of 7%.
On to `CC[C@H](C)[C@H](NC(=O)[C@@H]1CCCN1C(=O)[C@H](CC(C)C)NC(=O)CNC(C)=O)C(=O)N[C@@H](CO)C(=O)N[C@H](C(=O)N[C@H](C(=O)N[C@@H](CCCNC(=N)N)C(=O)N[C@@H](CCC(=O)O)C(=O)N[C@H](C(=O)N[C@@H](C)C(=O)N[C@@H](CC(C)C)C(=O)N[C@@]1(C)CCCC=CCCC[C@@](C)(C(=O)N[C@@H](C)C(=O)N[C@@H](Cc2ccccc2)C(=O)N[C@@H](CCC(=O)O)C(N)=O)NC(=O)[C@H](CC(C)C)NC(=O)[C@H](CCCNC(=N)N)NC(=O)[C@H](CCCNC(=N)N)NC1=O)C(C)C)C(C)C)[C@@H](C)O` [P3] (Ac-GLPISTVREVAL[S5]RRL[S5]AFE-NH2; staple 13-17), for which the solubility entry in data set [3] is given as “poorly soluble”.
